# Results taken from patent US20240226226A1, “KAPPA-OPIOID RECEPTOR AGONIST IMPLANTS FOR TREATMENT OF PRURITUS” (Titan Pharmaceuticals, Inc., priority 2021, published 2024).
# Columns and labels:
# [1] = Blood plasma levels from Compound A implants in rats; type: in vivo; settings: one implant per rat, 17.5 mg Compound A
# Method: Ten coextruded implants were prepared having a core comprising 50% of Compound A (as a salt) and 50% ethylene vinyl acetate, and a shell comprising 3% Compound A and 97% ethylene vinyl acetate. The implants measured 26 mm length×1.5 mm diameter, weighed 48 mg, and contained 17.5 mg Compound A. After extrusion, the implants were washed, dried, packaged and sterilized by E-beam irradiation at 25 KGy.
# The implants were implanted into rats (one implant per rat), and blood plasma levels were measured. After an initial peak from drug on the implant surface, the rat plasma levels were sustained within a range of about 1.4 to about 4 ng/ml for about 2,000 hours (about 83 days).
# [2] = system: mice challenged with the pruritogen 5′-GNTI; experiment: Scratching events in mice after 5′-GNTI challenge over an 84-day period, Compound A-containing implants; type: in vivo, mouse; settings: male C57BL/6 mice, one implant (26×2.6 mm, 60 mg Compound A), 5′GNTI 0.1 mg/kg s.c. on Days 28, 56 and 84, initial 30 minutes of observation
# Method: Male C57BL/6 mice (8-14 wks old, N=7-8) were each implanted with one Compound A-containing implant (26×2.6 mm, 50% loading, 60 mg Compound A/implant). Controls were untreated mice or mice implanted with placebo (EVA-only) implants (N=5-7). On Days 28, 56 and 84 post-implantation, the mice were transferred to behavioral rooms during the light cycle, at least 2 hours prior to challenge with the pruritogen 5′-GNTI to minimize stress effects on grooming and movement. 5′GNTI (0.1 mg/kg) was subcutaneously injected just caudal to the head/neck, and the mice were immediately placed in an observation chamber (25×25 cm) with plexiglas walls and light-colored melamine flooring and video recorded from above for up to 90 minutes after pruritogen challenge, and then removed and placed back into their home cages in the housing colony. The video recordings were subsequently analyzed for the quantity of scratching behavior, classified as either a forepaw scratching bout behind the ears, or hind paw scratching bout of the flank/back of the animal, over the initial 30 minutes of observation.
# (D28C=control mice at day 28, D28A=mice with Compound A implants at day 28, D56C=control mice at day 56, D56A=mice with Compound A implants at day 56, D84C=control mice at day 84, D84A=mice with Compound A implants at day 84).
# [3] = Mouse plasma concentration from EVA mouse prototype implants versus subcutaneous acute injection; type: in vivo; settings: male C57BL/6 mice, one prototype implant per mouse, compared with acute 0.3 mg/kg subcutaneous injection
# Method: Male C57BL/6 mice were sampled for pharmacokinetic analysis following subcutaneous acute injection with Compound A in saline (0.3 mg/kg drug was administered, using an injection volume of 10 mL/kg), or following implantation with one Compound A implant in each mouse. The implants used were as described in Example 2.
# [4] = system: mice challenged with 5′-guanidinonaltrindole (5′GNTI); experiment: Mouse itch model, 5′GNTI challenge, mouse prototype EVA implants; type: in vivo; settings: male C57BL/6 mice, 1 prototype implant (10 mg Compound A) per mouse
# Method: Compound A implants were formulated in ethylene-vinyl acetate (EVA) matrices for testing in male C57BL/6 mice. Because of the small size of the mouse, test implant prototypes (25 mm×1.5 mm) containing a limited quantity of the drug (10 mg) were used for this mouse model study. […] After extrusion, the implant prototypes were washed, dried, packaged and sterilized by E-beam irradiation at 25 KGy.
# Following the implantation of one Compound A implant in each mouse, the treated mice with drug-containing implants (N=5) and untreated control mice with placebo implants or sham surgery (N=7) were challenged with 5′-guanidinonaltrindole (5′GNTI) at Days 1, 14 and 28 post-implantation. Scratch events were monitored.
smiles,measurement,setting,value
CCCC[C@@H](NC(=O)[C@@H](Cc1ccccc1)NC(=O)[C@H](N)Cc1ccccc1)C(=O)N[C@H](CCCCN(C)C)C(=O)NCc1ccncc1 [Compound A],time for which plasma levels were sustained,[1],"2000 hours and about 2,000 hours"
same,scratch events versus control mice,[2],reduced scratch events
same,plasma concentrations of Compound A over the first 14 days post-implantation,[3],well above the levels estimated for therapeutic anti-pruritus activity
same,scratching behavior at day 28 post-implantation,[4]; 5′GNTI challenge,returning to control levels
same,sustained itch suppression post-implantation,"[4]; 5′GNTI challenge at Days 1, 14 and 28",up to 14 days
